Key:
VHL (VCB) = target: T1, VHL (VCB) (Homo sapiens, UniProt P40337); experiment: Intact-protein LC-MS of VCB labelling; format: binding; conditions: 100 μM compound, 24 h, room temperature
T1 construct: human VHL (UniPort entry P40337, residues 1 -213); 6xHis followed by TEV site (N, cleaved yes); made in house; host or cells: E. coli One Shot BL21(DE3)
Experimental: Initially, we subjected VHL-SF2-Biotin to the streptavidin shift assay and observed a greater extent of VHL modification (44%) than for VHL-SF1-Biotin under the same conditions (Figure S2). […] Intact LC–MS analysis confirmed single labeling of VHL by VHL-SF2, with 65% conversion at 24 h (Figure S5). Although we attempted several site ID identification experiments by digesting the labeled recombinant VHL, the Ser110-containing peptide was not detected in the samples treated with VHL-SF2. This observation is consistent with a change in peptide properties that is incompatible with mass spectrometry detection compared to untreated samples (Table S2). […]
Figure S4. Dose-response of VHL-SF1 following a 2 h pre-incubation in the presence of VCB and FAM-conjugated HIF1α-derived peptide, assessed by fluorescence polarization. […]
HEK293 cells (10 × 10^6 cells at 2 × 10^5 cells/ mL) were transfected with 2.6 µg of VHL-NanoLuc plasmid (PROMEGA) plus 24 µg of transfection carrier plasmid (PROMEGA) and incubated for 20 h at 37 °C, in a 5% CO2 incubator. […] Immediately after addition of tracer and compounds, cells were treated with digitonin after which NanoBRET Nano-Glo Substrate and inhibitor were added and BRET signal was measured in a Clariostar plate reader (BMG Labtech) at 450 nm and 610 nm within 5 min after addition of digitonin. […]

physchem = conditions: buffer
Experimental: Table S1. Sulfonyl fluoride warhead stability for VHL-SF1 and VHL-SF2 was determined in
(1 picture or pasted object on this page, not shown here)

BRD4-HiBiT HEK293T cells = conditions: 18 h, 70-0.01 μM

Cc1cc([C@H](C(=O)N2C[C@H](S(=O)(=O)F)C[C@H]2C(=O)N[C@@H](CC(=O)OC(C)(C)C)c2ccc(-c3scnc3C)cc2)C(C)C)on1 [VHL-SF2, tert-Butyl (S)-3-((2S,4R)-4-(Fluorosulfonyl)-1-((R)-3-methyl-2-(3-methylisoxazol-5-yl)butanoyl)pyrr-olidine-2-carboxamido)-3-(4-(4-methylthiazol-5-yl)phenyl)propanoate]
conversion, single (mono) labelling of VHL (VHL (VCB)): 65%
half-life (physchem; pH 4): 38 h
half-life (physchem; pH 5): 14 h
half-life (physchem; pH 6): 15 h
half-life (physchem; pH 7.5): 0.4 h
cytotoxicity (CellTiter-Glo) (BRD4-HiBiT HEK293T cells): no evidence of cytotoxicity

From paper PMC10982999, “Structure-Guided Design and Optimization of Covalent VHL-Targeted Sulfonyl Fluoride PROTACs” (Journal of Medicinal Chemistry, 2024)
